Assay results published in PubChem BioAssay AID1963973 (Molecular Pharmacology Branch, DTP, NCI, 2024).

System: 883617-216-R-J1-PDC tumor spheroids, viability
Assay: Anticancer human tumor 883617-216-R-J1-PDC patient-derived bladder carcinoma cell line growth inhibition [PI3K]
Settings: spheroids with HUVEC and MSC; for IC50: curve of first compound; for viability, T/C: stronger effect = lower value; active = viability on the fitted dose curve at most 10% of control; inactive = the rest
Method in brief: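 Multi-cell spheroids combine tumor cells with HUVEC and human MSCs, treated with targeted agents alone or with inavolisib, alpelisib, duvelisib or copanlisib. Concentrations fall in half-log steps from at or near clinical Cmax, or from 10 microM where Cmax is unknown; viability read-out.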
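Also: spheroids exposed to agents for 7 days before the viability read.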

C#Cc1c(F)ccc2cc(O)cc(-c3ncc4c(N5CC6CCC(C5)N6)nc(OCC56CCCN5CC(F)C6)nc4c3F)c12 (configuration not stated) + CC(Nc1ccc2c(c1)OCCn1cc(N3C(=O)OCC3C(F)F)nc1-2)C(N)=O
6.51 µM: IC50 (second compound 0.0316 µM)
< 0.0316 µM: IC50 (second compound 0.1 µM) | IC50 (second compound 0.316 µM) | IC50 (second compound 1 µM)
inactive: viability, T/C (second compound 0.00316 µM, first compound 0.0316 µM) 85.3% | viability, T/C (second compound 0.00316 µM, first compound 0.1 µM) 89.7% | viability, T/C (second compound 0.00316 µM, first compound 0.316 µM) 84.8% | viability, T/C (second compound 0.00316 µM, first compound 1 µM) 91.2% | viability, T/C (second compound 0.00316 µM, first compound 3.16 µM) 79.6% | viability, T/C (second compound 0.00316 µM, first compound 10 µM) 54.8% | viability, T/C (second compound 0.01 µM, first compound 0.0316 µM) 87.9% | viability, T/C (second compound 0.01 µM, first compound 0.1 µM) 88.4% | viability, T/C (second compound 0.01 µM, first compound 0.316 µM) 88.3% | viability, T/C (second compound 0.01 µM, first compound 1 µM) 85% | viability, T/C (second compound 0.01 µM, first compound 3.16 µM) 74.3% | viability, T/C (second compound 0.01 µM, first compound 10 µM) 53.2% | viability, T/C (second compound 0.0316 µM, first compound 0.0316 µM) 79.9% | viability, T/C (second compound 0.0316 µM, first compound 0.1 µM) 75.3% | viability, T/C (second compound 0.0316 µM, first compound 0.316 µM) 64.9% | viability, T/C (second compound 0.0316 µM, first compound 1 µM) 88.5% | viability, T/C (second compound 0.0316 µM, first compound 3.16 µM) 62.4% | viability, T/C (second compound 0.0316 µM, first compound 10 µM) 40.2% | viability, T/C (second compound 0.1 µM, first compound 0.0316 µM) 41.1% | viability, T/C (second compound 0.1 µM, first compound 0.1 µM) 39.7% | viability, T/C (second compound 0.1 µM, first compound 0.316 µM) 42.7% | viability, T/C (second compound 0.1 µM, first compound 1 µM) 39.6% | viability, T/C (second compound 0.1 µM, first compound 3.16 µM) 31% | viability, T/C (second compound 0.1 µM, first compound 10 µM) 21% | viability, T/C (second compound 0.316 µM, first compound 0.0316 µM) 27.6% | viability, T/C (second compound 0.316 µM, first compound 0.1 µM) 21.4% | viability, T/C (second compound 0.316 µM, first compound 0.316 µM) 21.4% | viability, T/C (second compound 0.316 µM, first compound 1 µM) 24.6% | viability, T/C (second compound 0.316 µM, first compound 3.16 µM) 16.7% | viability, T/C (second compound 0.316 µM, first compound 10 µM) 16.8% | viability, T/C (second compound 1 µM, first compound 0.0316 µM) 13.4% | viability, T/C (second compound 1 µM, first compound 0.1 µM) 16.9% | viability, T/C (second compound 1 µM, first compound 0.316 µM) 17.1% | viability, T/C (second compound 1 µM, first compound 1 µM) 12.8% | viability, T/C (second compound 1 µM, first compound 3.16 µM) 14.2% | viability, T/C (second compound 1 µM, first compound 10 µM) 8%
> 10 µM: IC50 (second compound 0.00316 µM) | IC50 (second compound 0.01 µM)
